Results published in patent US20070078058A1, “Use of MCPP to inhibit tuber sprouting” (ACETO AGRICULTURAL CHEMICALS CORP., priority 2005, published 2007).

How the values were obtained:
Russet Norkotah potatoes = assay: Sprout inhibition of stored Russet Norkotah potatoes (first trial, 54 degrees F.); assay type: in vivo, Solanum tuberosum
Excerpt: (§1) The storage system was designed to duplicate a large commercial storage facility in miniature. Drums containing 150-200 pounds of potatoes were sealed and housed in a building in which temperature was maintained throughout the testing period at 54 degrees F. for the first summer trial with Norkotah potatoes and 46 degrees F. for the Russet Burbank potatoes in the second trial. During both trials the humidity was maintained at […]. Formed in each drum is an inlet in which untreated air (ventilation air) was introduced under a perforated floor to the drum. The ventilation air moves through the pile of potatoes and is exhausted from the top of the drum to the outside of the building.
(§2) This storage ventilation was shut down for a 24 hour duration during and directly after the treatment of the chemicals. Then it is maintained for the duration of the trial, with ventilation air forced through the drums at a rate of 0.5 cubic feet per minute on a three-hour on and a three-hour off schedule.
(§3) In the spray application technique the formulations were mixed with water and sprayed on the newly harvested tubers at a rate of 5 and 10 parts per million (weight of the active to weight of the potatoes) mixed in a water carrier. The mixture was applied at 1 quart per ton of potatoes. The spray was applied via a hand held spray gun propelled with compressed air as the tubers were rotating in a cement mixer drum. This insured that all surface area is coated with the active ingredient.
All of the treatments in the reported test on Russet Norkotah used this technique with the exception of Untreated and CIPC A (CIPC 98A) that was thermal fogged.
(§4) The custom thermal fogger's heat source was an electric hot plate set at 500 degrees F. This temperature is monitored throughout the application with a thermal couple that is inserted in a cavity just below the surface where the chemical is placed. A chamber was attached to the hot plate. A fan was mounted to the top of the chamber. The fogger was attached to the storage container with flexible tubing.
(§5) The fog was delivered to each drum through separate ports. Through the bottom port of the storage drum a perforated stinger was installed that runs the length of the drum. Flexible tubing delivered the fog air mixture from the fogger. The fog air mixture was returned to the thermal fogger through a second flexible tubing that was attached from the top of the storage drum to the bottom of the thermal fogger. The air fog mixture was re-circulated through the system for five minutes.
Russet Norkotah potatoes were selected for the first trial for their short natural dormancy and aggressive sprouting.
(§6) The potatoes were monitored for sprout activity on a regular basis after treatment. When early sprout activity was observed the potatoes were first evaluated. Then at approximately 30 day intervals, 60 tubers were randomly selected from each treatment. Each tuber was rated for the length of the longest sprout on each tuber. The scale used for the rating system as is follows: • 0—Not Peeping=no sprout or swelling of eye tissue evident. • 1—Peeping=swelling of eye tissue up to a sprout length of 3 mm • 2—sprout length from 3 mm to 1 cm. • 3—sprout length from 1 cm to 3 cm. • 4—sprout length from 3 cm to 5 cm. • 5—sprout length from 5 cm and longer
(§7) Results of each set of 60 tubers were recorded into 6 subsets of 10 tubers each (replicates). Each set is summarized as a percent. The data is also summarized into AVERAGE SPROUT LENGTH and PERCENT OK RE: FRESHPCK (Fresh pack).
(§8) The PERCENT OK RE: FRESHPCK is the percent of the tubers that are NOT PEEPING and PEEPING categories combined together.
(§9) The MCPP spray was a MCPP potassium salt providing 2.5 pounds active ingredient per gallon of inert ingredients (water/coformulants). […]

Russet Burbank potatoes = assay: Sprout inhibition of stored Russet Burbank potatoes (second trial, 46 degrees F.), thermal fogs and liquid sprays; assay type: in vivo, Solanum tuberosum
Excerpt: as §1, §2, §3, §4, §5
Russet Burbank potatoes were selected for the second trial. The Russet Burbank is noted for its long term storability and is one of the most popular cultivars used for storage as it can be used as both a fresh pack potato and also has very desirable processing qualities.
as §6, §7, §8, §9

[1] = Concentration analysis: amounts recovered on the whole potato; conditions: thermal fog application
Excerpt: Much better results were obtained with the spray applications compared to the thermal fog applications of MCPP, believed to be due to the fact that we established a higher concentration on the tuber via spray.
For example, for spray and thermal fog application, amounts recovered on the whole potato approximately four months later were as follows: MCPP10 ppm applied via thermal fog=0.038 ppm MCPP10 ppm applied via liquid spray=6.3 ppm

[2] = 11 ppm Fog, 132 days after harvest
[3] = 11 ppm Fog, 161 days after harvest
[4] = 11 ppm Fog, 191 days after harvest
[5] = 11 ppm Fog, 223 days after harvest
[6] = 11 ppm Fog, 252 days after harvest
[7] = 11 ppm Fog, 283 days after harvest
[8] = 5 ppm Spray, 132 days after harvest
[9] = 5 ppm Spray, 161 days after harvest
[10] = 5 ppm Spray, 191 days after harvest
[11] = 5 ppm Spray, 223 days after harvest
[12] = 5 ppm Spray, 252 days after harvest
[13] = 5 ppm Spray, 283 days after harvest
[14] = 5 ppm Fog, 132 days after harvest
[15] = 5 ppm Fog, 161 days after harvest
[16] = 5 ppm Fog, 191 days after harvest
[17] = 5 ppm Fog, 223 days after harvest
[18] = 5 ppm Fog, 252 days after harvest
[19] = 5 ppm Fog, 283 days after harvest

| Compound | % OK for Fresh Pack Dormant + sprout up to 3 mm (Russet Norkotah potatoes; 5 ppm Spray, 53 DAH) [%] | % OK for Fresh Pack Dormant + sprout up to 3 mm (Russet Norkotah potatoes; 5 ppm Spray, 85 DAH) [%] | % OK for Fresh Pack Dormant + sprout up to 3 mm (Russet Norkotah potatoes; 5 ppm Spray, 107 DAH) [%] | % OK for Fresh Pack Dormant + sprout up to 3 mm (Russet Norkotah potatoes; 10 ppm Spray, 53 DAH) [%] | % OK for Fresh Pack Dormant + sprout up to 3 mm (Russet Norkotah potatoes; 10 ppm Spray, 85 DAH) [%] | % OK for Fresh Pack Dormant + sprout up to 3 mm (Russet Norkotah potatoes; 10 ppm Spray, 107 DAH) [%] | % OK For Fresh Pack Dormant + sprout up to 3 mm (Russet Burbank potatoes; [2]) [%] | % OK For Fresh Pack Dormant + sprout up to 3 mm (Russet Burbank potatoes; [3]) [%] | % OK For Fresh Pack Dormant + sprout up to 3 mm (Russet Burbank potatoes; [4]) [%] | % OK For Fresh Pack Dormant + sprout up to 3 mm (Russet Burbank potatoes; [5]) [%] | % OK For Fresh Pack Dormant + sprout up to 3 mm (Russet Burbank potatoes; [6]) [%] | % OK For Fresh Pack Dormant + sprout up to 3 mm (Russet Burbank potatoes; [7]) [%] | % OK For Fresh Pack Dormant + sprout up to 3 mm (Russet Burbank potatoes; [8]) [%] | % OK For Fresh Pack Dormant + sprout up to 3 mm (Russet Burbank potatoes; [9]) [%] | % OK For Fresh Pack Dormant + sprout up to 3 mm (Russet Burbank potatoes; [10]) [%] | % OK For Fresh Pack Dormant + sprout up to 3 mm (Russet Burbank potatoes; [11]) [%] | % OK For Fresh Pack Dormant + sprout up to 3 mm (Russet Burbank potatoes; [12]) [%] | % OK For Fresh Pack Dormant + sprout up to 3 mm (Russet Burbank potatoes; [13]) [%] | % OK For Fresh Pack Dormant + sprout up to 3 mm (Russet Burbank potatoes; [14]) [%] | % OK For Fresh Pack Dormant + sprout up to 3 mm (Russet Burbank potatoes; [15]) [%] | also measured |
| --- | --- | --- | --- | --- | --- | --- | --- | --- | --- | --- | --- | --- | --- | --- | --- | --- | --- | --- | --- | --- | --- |
| O=C(O)CCCOc1ccc(Cl)cc1Cl [2,4 DB] | 81.7 | 3.3 | 0.0 | 91.7 | 11.7 | 0.0 |  |  |  |  |  |  |  |  |  |  |  |  |  |  |  |
| Diisopropylnaphthalene [DIPN, reference compound] |  |  |  |  |  |  | 56.7 | 15 | 0 | 0 | 0 | 0 |  |  |  |  |  |  |  |  |  |
| CCCCC(CC)COC(=O)COc1ccc(Cl)cc1Cl (stereo not shown) [2,4 D LV, Isooctyl (2-ethylhexyl) ester of 2,4-Dichlorphenoxyacetic acid] |  |  |  |  |  |  |  |  |  |  |  |  | 96.7 | 30.0 | 8.3 | 0.0 | 0.0 | 0.0 |  |  |  |
| Cc1cc(Cl)ccc1OC(C)C(=O)O (stereo not shown) [MCPP, 2-(4-Chloro-2-methylphenoxy)propanoic acid] | 98.3 | 53.3 | 1.7 | 100.0 | 71.7 | 25.0 |  |  |  |  |  |  | 100.0 | 95.0 | 73.3 | 38.3 | 6.7 | 5.0 | 93.3 | 3.3 | % OK For Fresh Pack Dormant + sprout up to 3 mm (Russet Burbank potatoes; [16]): 0.0%; % OK For Fresh Pack Dormant + sprout up to 3 mm (Russet Burbank potatoes; [17]): 0.0%; % OK For Fresh Pack Dormant + sprout up to 3 mm (Russet Burbank potatoes; [18]): 0.0%; % OK For Fresh Pack Dormant + sprout up to 3 mm (Russet Burbank potatoes; [19]): 0.0%; % OK For Fresh Pack Dormant + sprout up to 3 mm (Russet Burbank potatoes; 10 ppm Fog, 132 days after harvest): 100.0%; % OK For Fresh Pack Dormant + sprout up to 3 mm (Russet Burbank potatoes; 10 ppm Fog, 161 days after harvest): 15.0%; % OK For Fresh Pack Dormant + sprout up to 3 mm (Russet Burbank potatoes; 10 ppm Fog, 191 days after harvest): 0.0%; % OK For Fresh Pack Dormant + sprout up to 3 mm (Russet Burbank potatoes; 10 ppm Fog, 223 days after harvest): 0.0%; % OK For Fresh Pack Dormant + sprout up to 3 mm (Russet Burbank potatoes; 10 ppm Fog, 252 days after harvest): 0.0%; % OK For Fresh Pack Dormant + sprout up to 3 mm (Russet Burbank potatoes; 10 ppm Fog, 283 days after harvest): 0.0%; % OK For Fresh Pack Dormant + sprout up to 3 mm (Russet Burbank potatoes; 10 ppm Spray, 132 days after harvest): 100.0%; % OK For Fresh Pack Dormant + sprout up to 3 mm (Russet Burbank potatoes; 10 ppm Spray, 161 days after harvest): 100.0%; % OK For Fresh Pack Dormant + sprout up to 3 mm (Russet Burbank potatoes; 10 ppm Spray, 191 days after harvest): 90.0%; % OK For Fresh Pack Dormant + sprout up to 3 mm (Russet Burbank potatoes; 10 ppm Spray, 223 days after harvest): 65.0%; % OK For Fresh Pack Dormant + sprout up to 3 mm (Russet Burbank potatoes; 10 ppm Spray, 252 days after harvest): 20.0%; % OK For Fresh Pack Dormant + sprout up to 3 mm (Russet Burbank potatoes; 10 ppm Spray, 283 days after harvest): 10.0%; stability when exposed to heat [1]: break down rapidly when exposed to heat |
| CC(C)OC(=O)Nc1cccc(Cl)c1 [CIPC 98A, isopropyl 3-chlorophenylcarbamate, reference compound] |  |  |  |  |  |  | 100.0 | 26.7 | 0.0 | 0.0 | 0.0 | 0.0 |  |  |  |  |  |  |  |  | % OK For Fresh Pack Dormant + sprout up to 3 mm (Russet Burbank potatoes; 16.6 ppm Fog, 132 days after harvest): 100.0%; % OK For Fresh Pack Dormant + sprout up to 3 mm (Russet Burbank potatoes; 16.6 ppm Fog, 161 days after harvest): 26.7%; % OK For Fresh Pack Dormant + sprout up to 3 mm (Russet Burbank potatoes; 16.6 ppm Fog, 191 days after harvest): 0.0%; % OK For Fresh Pack Dormant + sprout up to 3 mm (Russet Burbank potatoes; 16.6 ppm Fog, 223 days after harvest): 0.0%; % OK For Fresh Pack Dormant + sprout up to 3 mm (Russet Burbank potatoes; 16.6 ppm Fog, 252 days after harvest): 0.0%; % OK For Fresh Pack Dormant + sprout up to 3 mm (Russet Burbank potatoes; 16.6 ppm Fog, 283 days after harvest): 0.0%; % OK for Fresh Pack Dormant + sprout up to 3 mm (Russet Norkotah potatoes; 16.6 ppm Fog, 53 DAH): 100.0%; % OK for Fresh Pack Dormant + sprout up to 3 mm (Russet Norkotah potatoes; 16.6 ppm Fog, 85 DAH): 86.7%; % OK for Fresh Pack Dormant + sprout up to 3 mm (Russet Norkotah potatoes; 16.6 ppm Fog, 107 DAH): 86.7% |
| O=C(O)COc1ccc(Cl)cc1Cl [2,4 D Acid, (2,4-(dichlorophenoxy)-acetic acid, reference compound] |  |  |  |  |  |  |  |  |  |  |  |  |  |  |  |  |  |  | 100.0 | 16.7 | % OK For Fresh Pack Dormant + sprout up to 3 mm (Russet Burbank potatoes; [16]): 0.0%; % OK For Fresh Pack Dormant + sprout up to 3 mm (Russet Burbank potatoes; [17]): 0.0%; % OK For Fresh Pack Dormant + sprout up to 3 mm (Russet Burbank potatoes; [18]): 0.0%; % OK For Fresh Pack Dormant + sprout up to 3 mm (Russet Burbank potatoes; [19]): 0.0% |
